Data on 1 compound can be found in US20240132463A1, “SUBSTITUTED N-(2-(2,6-DIOXOPIPERIDIN-3-YL)-1,3-DIOXOISOINDOLIN-5-YL)ARYLSULFONAMIDE ANALOGS AS MODULATORS OF CEREBLON PROTEIN” (ST. JUDE CHILDREN'S RESEARCH HOSPITAL, INC., priority 2020, published 2024).

One series deals with MDCKII-MDR1 cells. The series is described as follows: MDCKII-MDR1 permeability assay. The class given is in vitro ADME. As to conditions: permeability in MDCK-MDR1 cells. On the procedure: High throughput […]1 permeability was performed in the Transwell® 0.4 μm polycarbonate membrane 96-well system with modified methods (Refs. 38-39). […]1 cells were maintained at 37° C. in a humidified incubator with an atmosphere of 5% CO2. The cells were cultured in 75 cm^2 flasks with Dulbecco's Modified Eagle's Medium (DMEM) containing 10% fetal bovine serum (FBS), 1% non-essential amino acids (NEAA), 100 units/ml of penicillin, and 100 μg/ml of streptomycin. The […]1 cells were seeded onto inserts at a density of 2×10^4 and 1×10^4 cells/insert separately. The medium in the wells was exchanged each other day, and the trans epithelial electrical resistance (TEER) value was measured using an epithelial volt-ohm meter (Millipore, Billerica, Massachusetts). […] For transport experiments, each cultured monolayer on the 96-well plate was washed twice with a transport buffer (HBSS/25 mM HEPES, pH 7.4). The permeability assay was initiated by the addition of each compound solution (10 μmol/L) into inserts (apical side, A) or receivers (basolateral side, B). The MDCKII-MDR1 cell monolayers were incubated for 1 hour at 37° C. Fractions were collected from receivers (if apical to basal permeability) or inserts (if basal to apical permeability), and concentrations were assessed by UPLC/MS (Waters; Milford, MA). All compounds were tested in triplicates. The A→B (or B→A) apparent permeability coefficients (Papp) of each compound were calculated using the equation, Papp=dQ/dt×1/AC0, where dQ/dt equals the flux of a drug across the monolayer, A equals the total insert well surface area, and C0 is the initial concentration of substrate in the donor compartment. The efflux ratio was determined by dividing the Papp in the B-A direction by the Papp in the A-B direction.

The next series concerns the target IKZF1 (Homo sapiens (Human), UniProt Q13422+Q96SW2). The series is described as follows: IKZF1 degradation by immunoblot in MV4-11 cells. It counts as cell-based. As to conditions: MV4-11 cells. On the procedure: (§1) MV4-11 cells were seeded in 6-well plates (1×10^6 cells per well). After overnight incubation, the cells were treated with indicated concentrations for specific timepoints. […] After blocking the membrane with LI-COR TBS blocking buffer and incubation in primary antibody overnight, the corresponding protein signals were detected using IRDye secondary antibodies and Odyssey Imaging System. Image Studio Lite Ver 5.2 was used for blot quantification. […] IRDye® 800CW Goat anti-Mouse IgG Secondary Antibody and IRDye® 68ORD Goat anti-Rabbit IgG Secondary Antibody were used as secondary antibodies.
In general terms: In western blotting, separated proteins are transferred to a membrane and probed.

Series [1] in a line: Pharmacokinetics (PK) study in CD1 mice. The class given is in vivo, mouse. Here is the method: Healthy female CD1 mice (8-12 weeks old) weighing between 20 to 30 g were procured from Global, India. Three mice were housed in each cage. Temperature and humidity were maintained at 22±3° C. and 30-70%, respectively and illumination was controlled to give a sequence of 12 hr light and 12 hr dark cycle. Temperature and humidity were recorded by auto-controlled data logger system. All the animals were provided laboratory rodent diet (Envigo Research private Ltd, Hyderabad). Reverse osmosis water treated with ultraviolet light was provided ad libitum. Formulation vehicle: 5% v/v NMP: 5% v/v Solute HS-15 and 90% v/v normal saline. […] The dosing volume for intravenous was 5 mL/kg and for oral administration 10 mL/kg. Blood samples (approximately 60 μL) were collected under light isoflurane anesthesia (Surgivet®) from retro orbital plexus from a set of three mice at 0.08 (for IV only), 0.25, 0.5, 1, 2, 4, 6 (for PO only), 8, 12 and 24 hr. Immediately after blood collection, plasma was harvested by centrifugation at 4000 rpm, 10 min at […] and samples were stored at −70±10° C. until bioanalysis. […] Non-Compartmental-Analysis tool of Phoenix WinNonlin® (Version 8.0) was used to assess the pharmacokinetic parameters. Peak plasma concentration (Cmax) and time for the peak plasma concentration (Tmax) were the observed values. The areas under the concentration time curve (AUClast and AUCinf) were calculated by linear trapezoidal rule. The terminal elimination rate constant, ke was determined by regression analysis of the linear terminal portion of the log plasma concentration-time curve. Clearance was estimated as Dose/AUCinf and Vss as CL*MRT. The oral bioavailability was calculated as ratio of dose normalized AUC of oral and intravenous group multiplied by 100.

For a further series, the target named is GSPT1 (Homo sapiens (Human), UniProt P15170+Q96SW2). In words: GSPT1 degradation by immunoblot in MV4-11 cells. It counts as cell-based. As to conditions: MV4-11 cells, 4 hours, at 100 nM. On the procedure: as §1
Chain of GSPT1 (P15170 whole entry): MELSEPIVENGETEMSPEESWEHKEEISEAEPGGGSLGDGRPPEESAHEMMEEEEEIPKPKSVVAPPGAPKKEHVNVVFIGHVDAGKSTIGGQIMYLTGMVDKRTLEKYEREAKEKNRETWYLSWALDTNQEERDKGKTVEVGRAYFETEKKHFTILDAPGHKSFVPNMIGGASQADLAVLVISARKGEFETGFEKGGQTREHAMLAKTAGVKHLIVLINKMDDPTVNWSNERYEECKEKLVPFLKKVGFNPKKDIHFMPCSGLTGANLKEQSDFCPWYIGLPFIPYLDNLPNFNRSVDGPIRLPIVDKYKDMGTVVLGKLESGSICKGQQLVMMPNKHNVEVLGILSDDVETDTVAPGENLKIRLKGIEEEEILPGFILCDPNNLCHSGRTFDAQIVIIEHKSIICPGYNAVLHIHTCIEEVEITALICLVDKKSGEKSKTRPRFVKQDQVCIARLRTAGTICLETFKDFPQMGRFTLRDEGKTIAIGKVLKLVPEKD
Chain of GSPT1 (Q96SW2 whole entry): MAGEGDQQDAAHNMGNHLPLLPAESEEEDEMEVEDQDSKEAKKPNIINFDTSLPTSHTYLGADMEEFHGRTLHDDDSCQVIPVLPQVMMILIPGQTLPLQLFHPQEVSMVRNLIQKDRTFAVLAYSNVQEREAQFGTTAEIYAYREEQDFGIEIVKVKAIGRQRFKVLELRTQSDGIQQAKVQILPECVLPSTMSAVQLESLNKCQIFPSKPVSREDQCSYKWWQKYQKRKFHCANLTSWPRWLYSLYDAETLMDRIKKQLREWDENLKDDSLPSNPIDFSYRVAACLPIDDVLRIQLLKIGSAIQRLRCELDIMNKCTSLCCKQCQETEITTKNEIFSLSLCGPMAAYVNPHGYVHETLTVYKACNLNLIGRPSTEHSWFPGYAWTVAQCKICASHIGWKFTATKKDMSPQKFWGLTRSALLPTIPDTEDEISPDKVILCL
Chain of GSPT1 (Q16531 whole entry partner): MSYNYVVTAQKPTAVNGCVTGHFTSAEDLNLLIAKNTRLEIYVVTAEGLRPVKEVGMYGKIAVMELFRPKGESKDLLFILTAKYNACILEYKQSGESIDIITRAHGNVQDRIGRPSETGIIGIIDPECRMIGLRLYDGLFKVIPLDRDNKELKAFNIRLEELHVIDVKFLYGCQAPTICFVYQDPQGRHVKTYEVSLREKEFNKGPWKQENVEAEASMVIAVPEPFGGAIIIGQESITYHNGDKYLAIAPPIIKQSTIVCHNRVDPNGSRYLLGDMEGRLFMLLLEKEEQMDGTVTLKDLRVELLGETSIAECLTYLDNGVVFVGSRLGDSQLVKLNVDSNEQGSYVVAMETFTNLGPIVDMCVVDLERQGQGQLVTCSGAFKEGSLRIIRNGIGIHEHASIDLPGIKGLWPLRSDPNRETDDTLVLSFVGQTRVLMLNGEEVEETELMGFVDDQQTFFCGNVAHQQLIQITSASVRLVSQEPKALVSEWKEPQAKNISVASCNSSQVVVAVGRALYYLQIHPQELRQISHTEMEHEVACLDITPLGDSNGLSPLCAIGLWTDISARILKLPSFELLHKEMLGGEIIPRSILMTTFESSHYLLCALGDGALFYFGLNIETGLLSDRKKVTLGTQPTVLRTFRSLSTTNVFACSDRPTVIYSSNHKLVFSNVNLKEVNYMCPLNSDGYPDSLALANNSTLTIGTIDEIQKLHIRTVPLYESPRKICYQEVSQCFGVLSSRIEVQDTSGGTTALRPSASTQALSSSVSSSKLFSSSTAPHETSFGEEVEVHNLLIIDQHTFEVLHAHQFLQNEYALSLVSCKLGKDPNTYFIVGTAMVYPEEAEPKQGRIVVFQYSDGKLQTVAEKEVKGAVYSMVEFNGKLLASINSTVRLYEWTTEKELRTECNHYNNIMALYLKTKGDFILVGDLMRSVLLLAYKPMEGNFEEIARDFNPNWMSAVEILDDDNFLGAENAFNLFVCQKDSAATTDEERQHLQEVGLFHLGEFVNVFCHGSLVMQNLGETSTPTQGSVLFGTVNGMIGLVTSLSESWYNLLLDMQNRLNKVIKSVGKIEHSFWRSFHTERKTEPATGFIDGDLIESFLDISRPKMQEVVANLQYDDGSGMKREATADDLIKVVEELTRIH
A short description of series [2]: Plasma protein binding assay (mouse). It counts as in vitro ADME. On the procedure: (§2) Stock solutions were prepared at 10 mM in DMSO. Dulbecco's phosphate buffered saline (DPBS; pH 7.4) was obtained from Invitrogen (Carlsbad, CA). Single-Use RED (rapid equilibrium dialysis) device was obtained from Thermo scientific (Rockford, IL). Human and mouse plasma were obtained from GeneTex (Irvine, CA). Sample preparation for plasma protein binding was modified from Waters' method (see Waters, N.J., et al., J Pharm Sci. 2008 October; 97(10):4586-95). The Teflon base plate with the RED inserts was used without any pre-conditioning the membrane inserts. Plasma was thawed and centrifuged at 1000 rpm for 10 min to remove any particulates. Each compound was prepared at 10 μM in human or mouse plasma. Spiked plasma solutions (300 μL) were placed into the sample chamber (indicated by the red ring) and 500 μL of DPBS into the adjacent chamber. The plate was sealed and incubated at 37° C. on an orbital shaker (100 rpm) for 4 hours. After incubation, the seal was removed from the RED plate and the volume of the insert confirmed-little to no volume change occurred. […] The test compound concentrations were quantified in both buffer and plasma chambers via peak areas relative to the internal standard. The percentage of the test compound bound to plasma was calculated on following equations: % Free=(Concentration buffer chamber/concentration plasma chamber)×100% and % Bound=100%-% Free.

For the next series, the system named is caspase 3/7. In words: Caspase 3/7 activity assay. It counts as cell-based, human. As to conditions: MV4-11 cells, Caspase-Glo, 4, 8 and 24 hours, 10 and 100 nM.
The subject of a further series is MV4-11 cells. In words: MV-4-11 cell viability assay. The class given is cell-based, human. As to conditions: 72 hours, Cell Titer Glo.
A short description of series [3]: Plasma protein binding assay (human). It counts as in vitro ADME. Here is the method:
as §2

SMILES strings stand for the structures.

The term Papp denotes a coefficient for how fast a substance crosses the barrier. Read a low Papp as slow passage. What is called clearance is the rate of elimination divided by the concentration. A higher clearance goes with a high capacity for elimination. In the series on MDCKII-MDR1 cells, `O=C1CCC(N2C(=O)c3ccc(NS(=O)(=O)c4ccccc4OC(F)(F)F)cc3C2=O)C(=O)N1` (stereo not drawn) [Compound 1, N-(2-(2,6-dioxopiperidin-3-yl)-1,3-dioxoisoindolin-5-yl)-2-(trifluoromethoxy)benzenesulfonamide] came in with a Papp of 2.3 ×10⁻⁶ cm/s. Moreover, the “IKZF1 degradation at 4 hours” value on IKZF1 (4 hours, any concentration tested) is “did not significantly degrade IKZF1”. Moreover, the IKZF1 protein abundance entry at IKZF1 (treatment over 24 hours) is listed as “dose-dependent decrease”. In series [1] (3 mg/kg IV), this compound returned a clearance of 0.46 mL/min/kg. Moreover, the volume of distribution in series [1] (3 mg/kg IV) amounted to 0.15 L/kg. In series [1] (10 mg/kg PO vs 3 mg/kg IV), this compound yielded an oral bioavailability of 84%. Moreover, the half-life in series [1] (female, CD1, mouse, plasma, 3 mg/kg IV, read-out: terminal elimination half-life (t1/2) (converted)) was 3.4 h. At GSPT1, this compound came in with a GSPT1 protein degradation of 90%. In addition, the Plasma protein binding in series [2] turned out to be 99.3%; in series [3], 99.1%. Besides, the caspase activation result with caspase 3/7 is “measurable at 8 hours”. Further, the “MV4-11 EC50” value in the series on MV4-11 cells is recorded as “among the most potent”.
